# Tests used:
# T3 breast tumor cells = assay: T3 breast tumor xenograft growth; assay type: in vivo, NOD/SCID mice
# Procedure: In certain embodiments, NOD/SCID mice injected with 50,000 PE13 or T3 breast tumor cells were treated with anti-Notch2/3 antibody 59R1 or control antibody 1B7.11 two days following cell injections. Antibodies were dosed at 10 mg/kg twice week.
# In a further experiment, anti-Notch2/3 antibodies were tested for an effect on breast tumor growth. NOD/SCID mice were injected with 50,000 PE13 or T3 breast tumor cells, and tumors were allowed to grow to a size of between 65 to 200 mm^3 after which mice were randomized (n=10 per experimental group), and antibodies administration begun. Animals were treated with 15 mg/kg of either control 1B7.11 antibodies or anti-Notch2/3 59R1 antibodies twice weekly. Tumor size was measured twice weekly, and tumor volume was calculated as described (see Michieli et al., 2004).
# [1] = target: T1, binding of DLL4 to the human Notch 2 receptor (Homo sapiens, UniProt Q04721); assay: FACS blocking of hDLL4 ECD-Fc binding to human Notch2 on HEK-293 cells; conditions: HEK-293 stably overexpressing human Notch2
# T1 construct: expressed in transfected cells; host or cells: HEK-293, stably overexpressing human Notch2
# Procedure: In addition, the 59R1 IgG2 antibody was assayed for its ability to block binding of DLL4 to the human Notch 2 receptor by FACS analysis. HEK-293 cells stably overexpressing human Notch2 were incubated with the antibody at various concentration and then detected for hNotch2 binding (FIG. 1C) by PE-conjugated goat anti-human Fc gamma specific antibody, or ligand blocking activity (FIG. 1D). Ligand blocking was determined by incubating the cells with human DLL4 ECD tagged with the rabbit Fc constant region and the 59R1 antibody at a range of concentrations, and then detecting the hDLL4 by PE-conjugated donkey anti-rabbit antibody. Binding of hNotch2 and ligand blocking activity were thus confirmed for the 59R1 IgG2 antibody.
# [2] = system: hJAG2-induced Notch2 signaling; assay: Luciferase reporter assay, hJAG2-induced Notch2 signaling in Hela cells; assay type: cell-based, human; conditions: 40 μg/ml
# Procedure: Luciferase reporter assays were used to assay the 59R1 antibody for its ability to block hDLL4-, hJAG1-, and hJAG2-induced Notch2 signaling.
# Hela cells that stably overexpress human Notch2 were transiently transfected with firefly luciferase with a synthetic 8×CBS promoter, pSPORT6 MAML-1, and Renilla luciferase-CMV as a transfection control. Cells were incubated with either 200 ng of immobilized hJAG1 (R&D systems) or hJAG2 (R&D systems) for 16 hours and then assayed using Dual-Glo (Promega) according to the manufacturer's instructions. 59R1 IgG2 antibody was at a concentration of 40 μg/ml. The gamma secretase inhibitor (GSI) dibenzazepine (DBZ) was used as a control at 1 μM.
# PE13 breast tumors = assay: Microarray analysis of PE13 breast tumors treated with taxol or 59R1 plus taxol; assay type: in vivo, mice; conditions: PE13, 59R1 Taxol vs. Taxol
# Procedure: In addition to investigating the effects of 59R1 in tumors and the effect on CSC frequency, gene changes were studied following 59R1 treatment in combination with taxol. The experiment was performed in PE13 breast tumors where a decrease in CSC frequency after treatment with 59R1 alone or 59R1 plus taxol treatment had previously been observed (and described herein). Microarray analysis was performed on tumors from the same experiment where limiting dilution analyses of PE13 were carried out for CSC quantification (FIG. 19). Animals bearing PE13 breast tumors were treated three weeks with 59R1 plus taxol, control and taxol prior to harvesting for microarray analysis. Mean differential expression values for taxol vs. control and 59R1 plus taxol vs. taxol treated animals (3 animals per group) were calculated.
# stroma of PE13 tumors = assay: Microarray gene expression in stroma of treated xenograft tumors, PE13; assay type: in vivo, mice; conditions: 59R1 vs control
# human Notch4 = target: T2, human Notch4 (Homo sapiens, UniProt Q99466); assay: FACS binding to transiently transfected HEK-293 cells, human Notch4
# T2 construct: All Notch constructs were full length; expressed in transfected cells; host or cells: HEK-293, transient, co-transfected with GFP
# Procedure: The ability of the 59R1 IgG2 antibody to cross-react with other Notch receptors was determined by FACS assay using HEK-293 cells transiently transfected with the human Notch1, Notch2, Notch3 or Notch4 expression plasmid and green fluorescent protein (GFP) as a transfection control. GFP positive cells indicated expression of the transgene. The 59R1 IgG2 was added to the cells at 2 μg/ml and detected by PE-conjugated goat anti-human Fc gamma specific (Jackson Immunochemicals). All Notch constructs were full length.
# [3] = system: Colo-205 colon tumors and PE-13 breast tumors; assay: Pimonidazole staining for hypoxic regions in treated tumors; assay type: in vivo, mice
# Procedure: Staining for hypoxic regions was performed in Colo-205 colon tumors and PE-13 breast tumors that had been treated either with 59R1 IgG2 antibody or with 1B711 control antibody. The staining was performed as described in Ridgway et al., 2006, Nature 444:1083-1087. Briefly, to measure hypoxia, pimonidazole-hydrochloride (HypoxyProbe, NPI, Burlington, Mass.), which forms long-lived protein adducts at partial pressure of oxygen less than approximately 10 mm Hg, was injected intraperitoneally at 60 mg/kg 1 hr prior to sacrifice. Tumors were then processed for histological analysis, and tumor sections were stained using anti-pimonidazole antibody following manufacturer's protocol (NPI). Photographs were taken using a BX51 microscope (Olympus, Center Valley, Pa.).
# AF594-conjugated goat anti-rat F(ab′)2 was used to detect anti-CD31 antibody and FITC-conjugated goat anti-rabbit antibody was used to detect anti-pimonidazole antibody.
# human Notch2 = human Notch2 (Homo sapiens, UniProt Q04721); assay: DLL4-Fc induced receptor activation in transfected PC3 cells, human Notch2; assay type: cell-based; design: expressed in transfected cells; conditions: immobilized DLL4-Fc
# Procedure: 59R5 was determined to have similar activity in blocking Notch2 and Notch3 signaling as 59R1. Receptor activation was determined in luciferase-based assays. PC3 tumor cells were transiently transfected with a human or mouse Notch receptor (human Notch2, murine Notch2, human Notch3, or murine Notch3) and […] inducible reporter construct. Transfected cells were incubated with different concentrations of 59R1 or 59R5 antibody in the presence of passively immobilized DLL4-Fc protein. Notch receptor activation was determined by measuring luciferase activity.
# T2 sequence (Q99466 24-2003): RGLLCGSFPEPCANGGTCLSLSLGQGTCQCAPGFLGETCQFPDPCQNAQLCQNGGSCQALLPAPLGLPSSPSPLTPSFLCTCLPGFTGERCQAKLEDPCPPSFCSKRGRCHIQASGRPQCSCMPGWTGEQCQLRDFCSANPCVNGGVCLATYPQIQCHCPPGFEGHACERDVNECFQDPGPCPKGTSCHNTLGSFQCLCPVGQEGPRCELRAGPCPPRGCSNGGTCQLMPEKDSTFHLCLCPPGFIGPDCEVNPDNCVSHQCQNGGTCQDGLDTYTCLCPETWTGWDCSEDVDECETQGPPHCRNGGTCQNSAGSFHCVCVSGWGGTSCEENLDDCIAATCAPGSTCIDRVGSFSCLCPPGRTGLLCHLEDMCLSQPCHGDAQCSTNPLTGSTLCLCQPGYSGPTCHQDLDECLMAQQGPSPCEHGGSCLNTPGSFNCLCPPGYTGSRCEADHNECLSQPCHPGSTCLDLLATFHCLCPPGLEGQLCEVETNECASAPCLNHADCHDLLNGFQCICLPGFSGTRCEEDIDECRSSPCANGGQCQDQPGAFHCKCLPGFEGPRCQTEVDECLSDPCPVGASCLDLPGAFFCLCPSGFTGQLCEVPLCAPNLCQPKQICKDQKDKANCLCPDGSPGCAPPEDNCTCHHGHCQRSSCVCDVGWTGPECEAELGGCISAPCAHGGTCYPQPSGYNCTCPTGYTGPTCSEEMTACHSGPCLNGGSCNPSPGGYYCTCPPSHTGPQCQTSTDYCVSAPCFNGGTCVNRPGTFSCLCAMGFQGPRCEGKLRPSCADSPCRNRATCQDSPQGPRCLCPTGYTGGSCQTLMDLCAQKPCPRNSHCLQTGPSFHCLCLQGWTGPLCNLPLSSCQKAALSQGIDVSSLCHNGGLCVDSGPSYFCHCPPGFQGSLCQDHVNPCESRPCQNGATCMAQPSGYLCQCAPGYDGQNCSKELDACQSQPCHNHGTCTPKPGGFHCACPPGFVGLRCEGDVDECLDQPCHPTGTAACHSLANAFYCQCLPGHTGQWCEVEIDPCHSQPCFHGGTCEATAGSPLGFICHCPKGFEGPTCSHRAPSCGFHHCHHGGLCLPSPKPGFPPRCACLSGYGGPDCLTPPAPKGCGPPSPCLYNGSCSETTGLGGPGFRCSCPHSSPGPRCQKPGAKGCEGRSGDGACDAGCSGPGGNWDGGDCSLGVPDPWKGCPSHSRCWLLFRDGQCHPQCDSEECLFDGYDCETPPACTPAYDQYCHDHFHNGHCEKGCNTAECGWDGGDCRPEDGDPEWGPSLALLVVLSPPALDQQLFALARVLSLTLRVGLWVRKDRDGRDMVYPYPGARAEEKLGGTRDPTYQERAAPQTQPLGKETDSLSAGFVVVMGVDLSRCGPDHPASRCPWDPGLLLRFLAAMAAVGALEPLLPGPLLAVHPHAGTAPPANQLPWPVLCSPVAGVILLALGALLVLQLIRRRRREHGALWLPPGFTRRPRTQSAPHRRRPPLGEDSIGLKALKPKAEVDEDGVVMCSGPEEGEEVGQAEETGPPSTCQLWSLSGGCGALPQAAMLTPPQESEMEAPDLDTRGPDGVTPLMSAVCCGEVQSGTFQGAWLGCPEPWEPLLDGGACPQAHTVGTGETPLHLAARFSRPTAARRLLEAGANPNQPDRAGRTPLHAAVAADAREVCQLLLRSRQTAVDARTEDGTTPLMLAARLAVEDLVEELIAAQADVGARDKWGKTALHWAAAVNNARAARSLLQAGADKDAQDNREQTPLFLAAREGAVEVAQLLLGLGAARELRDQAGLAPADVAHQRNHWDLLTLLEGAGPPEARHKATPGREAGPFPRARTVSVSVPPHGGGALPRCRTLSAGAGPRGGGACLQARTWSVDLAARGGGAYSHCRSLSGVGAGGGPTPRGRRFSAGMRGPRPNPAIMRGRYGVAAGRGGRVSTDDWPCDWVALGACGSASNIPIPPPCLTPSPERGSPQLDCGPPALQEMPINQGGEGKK
# T1 sequence (Q04721 26-2471): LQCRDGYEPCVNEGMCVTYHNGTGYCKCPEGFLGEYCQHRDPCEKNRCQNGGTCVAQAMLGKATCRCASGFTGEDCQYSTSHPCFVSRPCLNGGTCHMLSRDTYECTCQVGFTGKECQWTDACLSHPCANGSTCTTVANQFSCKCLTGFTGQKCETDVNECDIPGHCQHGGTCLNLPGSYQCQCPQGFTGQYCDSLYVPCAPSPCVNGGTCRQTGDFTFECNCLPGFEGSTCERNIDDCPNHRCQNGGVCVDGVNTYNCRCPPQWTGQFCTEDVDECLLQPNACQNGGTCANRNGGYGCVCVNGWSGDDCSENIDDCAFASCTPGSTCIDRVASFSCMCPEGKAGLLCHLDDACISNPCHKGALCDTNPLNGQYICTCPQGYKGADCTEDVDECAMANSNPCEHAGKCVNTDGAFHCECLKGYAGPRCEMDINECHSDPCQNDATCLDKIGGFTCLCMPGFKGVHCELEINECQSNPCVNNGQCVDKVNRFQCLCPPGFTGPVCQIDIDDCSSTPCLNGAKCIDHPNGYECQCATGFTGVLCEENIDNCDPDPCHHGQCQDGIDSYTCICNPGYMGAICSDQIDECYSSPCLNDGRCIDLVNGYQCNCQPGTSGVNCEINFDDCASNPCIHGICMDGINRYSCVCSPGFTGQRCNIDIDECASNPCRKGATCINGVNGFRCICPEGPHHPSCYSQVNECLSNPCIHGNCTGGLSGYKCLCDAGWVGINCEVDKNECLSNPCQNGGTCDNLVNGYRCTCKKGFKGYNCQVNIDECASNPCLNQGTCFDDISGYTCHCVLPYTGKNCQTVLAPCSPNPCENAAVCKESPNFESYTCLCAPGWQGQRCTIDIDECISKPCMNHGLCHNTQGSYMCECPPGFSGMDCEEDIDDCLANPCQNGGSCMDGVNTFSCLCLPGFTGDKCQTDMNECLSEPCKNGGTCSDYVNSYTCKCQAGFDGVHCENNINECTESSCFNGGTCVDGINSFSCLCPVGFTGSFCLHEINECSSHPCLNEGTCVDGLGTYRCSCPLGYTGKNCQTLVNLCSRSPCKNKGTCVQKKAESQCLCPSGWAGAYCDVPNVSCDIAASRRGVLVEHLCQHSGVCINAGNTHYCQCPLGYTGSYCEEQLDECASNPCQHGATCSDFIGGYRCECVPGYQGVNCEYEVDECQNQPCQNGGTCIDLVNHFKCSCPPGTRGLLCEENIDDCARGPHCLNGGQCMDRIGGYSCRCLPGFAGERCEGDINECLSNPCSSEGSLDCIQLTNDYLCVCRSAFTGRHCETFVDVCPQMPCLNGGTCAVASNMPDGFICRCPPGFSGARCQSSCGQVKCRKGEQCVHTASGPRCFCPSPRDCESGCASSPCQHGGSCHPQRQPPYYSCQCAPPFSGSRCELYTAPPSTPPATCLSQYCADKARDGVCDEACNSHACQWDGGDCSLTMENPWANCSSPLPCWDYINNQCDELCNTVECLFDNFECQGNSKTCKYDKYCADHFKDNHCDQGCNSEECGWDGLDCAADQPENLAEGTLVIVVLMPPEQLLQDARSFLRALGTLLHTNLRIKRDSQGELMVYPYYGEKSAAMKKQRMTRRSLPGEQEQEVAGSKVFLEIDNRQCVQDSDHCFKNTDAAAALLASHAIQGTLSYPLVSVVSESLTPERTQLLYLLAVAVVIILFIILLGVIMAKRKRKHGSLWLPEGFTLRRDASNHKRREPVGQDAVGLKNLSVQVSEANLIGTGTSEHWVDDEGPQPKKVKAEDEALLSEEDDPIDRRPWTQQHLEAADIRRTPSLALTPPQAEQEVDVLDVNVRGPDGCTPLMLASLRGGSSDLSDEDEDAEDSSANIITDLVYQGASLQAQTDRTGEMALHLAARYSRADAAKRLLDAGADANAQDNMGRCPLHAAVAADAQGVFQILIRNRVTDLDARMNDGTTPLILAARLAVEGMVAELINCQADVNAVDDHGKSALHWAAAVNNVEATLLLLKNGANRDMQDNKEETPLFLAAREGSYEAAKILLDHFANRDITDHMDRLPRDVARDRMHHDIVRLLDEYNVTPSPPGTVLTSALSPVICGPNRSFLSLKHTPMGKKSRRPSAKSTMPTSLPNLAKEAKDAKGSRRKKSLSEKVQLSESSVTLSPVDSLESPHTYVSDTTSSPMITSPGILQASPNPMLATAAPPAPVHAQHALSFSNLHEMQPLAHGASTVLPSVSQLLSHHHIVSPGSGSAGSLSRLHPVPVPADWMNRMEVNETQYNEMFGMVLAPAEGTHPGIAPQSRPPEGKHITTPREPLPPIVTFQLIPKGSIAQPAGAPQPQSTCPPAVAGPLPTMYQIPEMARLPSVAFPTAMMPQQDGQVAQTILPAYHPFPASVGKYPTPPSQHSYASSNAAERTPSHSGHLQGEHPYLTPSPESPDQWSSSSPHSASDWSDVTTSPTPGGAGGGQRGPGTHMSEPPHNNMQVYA
# human Notch2, sequence (Q04721 26-2471): as above
substance,measurement,setting,value
59R1: human IgG2 antibody binding Notch2 and Notch3; heavy and light chain SEQ ID NO:16 and 18; ATCC PTA-9547,T3 tumor growth compared to control,"T3 breast tumor cells; 10 mg/kg twice week, started two days following cell injections",significantly reduced
same,T3 tumor growth compared to control,"T3 breast tumor cells; established tumors, 15 mg/kg twice weekly",significantly reduced
same,blocking of hDLL4 binding to human Notch2 (FACS),[1],confirmed
same,hJAG2-induced Notch2 reporter activity,[2],inhibit
same,Fold BMPR1B,PE13 breast tumors,−4.3
same,Fold BNIP3,PE13 breast tumors,1.8
same,Fold EGLN3,PE13 breast tumors,11.9
same,Fold HSPB6,PE13 breast tumors,−1.8
same,Fold ITGAM,PE13 breast tumors,−2.5
same,Fold LHX8,PE13 breast tumors,−4.4
same,Fold NDRG1,PE13 breast tumors,6.4
same,Fold RARRES1,PE13 breast tumors,−2.2
same,Fold RARRES3,PE13 breast tumors,−1.7
same,Fold RBP2,PE13 breast tumors,−2.2
same,Fold XAF1,PE13 breast tumors,−1.5
same,Fold 1416286_at (Rgs4),stroma of PE13 tumors,−1.83
same,Fold 1417466_at (Rgs5),stroma of PE13 tumors,−4.03
same,Fold 1417714_x_at (Hba-al/Hba-a2),stroma of PE13 tumors,−1.92
same,Fold 1418829_a_at (Eno2),stroma of PE13 tumors,1.54
same,Fold 1419302_at (Heyl),stroma of PE13 tumors,−1.77
same,Fold 1420872_at (Gucy1b3),stroma of PE13 tumors,−3.06
same,Fold 1420941_at (Rgs5),stroma of PE13 tumors,−2.99
same,Fold 1420942_s_at (Rgs5),stroma of PE13 tumors,−4.23
same,Fold 1421964_at (Notch3),stroma of PE13 tumors,−1.91
same,Fold 1422789_at (Aldh1a2),stroma of PE13 tumors,−2.17
same,Fold 1428361_x_at (Hba-al/Hba-a2),stroma of PE13 tumors,−1.73
same,Fold 1434141_at (Gucy1a3),stroma of PE13 tumors,−4.18
same,Fold 1449280_at (Esm1),stroma of PE13 tumors,1.56
same,Fold 1449632_s_at (Fkbp10),stroma of PE13 tumors,−1.63
same,Fold 1451501_a_at (Ghr),stroma of PE13 tumors,−1.66
same,Fold 1452590_a_at (Plac9),stroma of PE13 tumors,−1.62
same,Fold 1459713_s_at (Tmem16a),stroma of PE13 tumors,−7.28
same,binding to full-length human Notch4 (FACS),human Notch4,does not bind significantly
same,hypoxic regions (anti-pimonidazole antibody) versus 1B711 treated tumors,[3]; Colo-205 and PE13 tumors,significantly more pronounced
same,number of CD31-positive cells,[3]; treated tumors versus 1B711,remained unchanged
59R5: human antibody that specifically binds human Notch 2 and human Notch 3; heavy and light chain SEQ ID NO:49 and 18; ATCC PTA-10170,ligand-induced activation of human Notch2 receptor signaling,human Notch2,blocked

# Source: patent US8226943B2, “Antibodies to notch receptors” (OncoMed Pharmaceuticals, Inc., priority 2008, dated 2012)
